{"source": "paper PMC9667546", "about": "“Selective Inhibition of Bruton’s Tyrosine Kinase by a Designed Covalent Ligand Leads to Potent Therapeutic Efficacy in Blood Cancers Relative to Clinically Used Inhibitors” (ACS Pharmacology & Translational Science, 2022)", "key": {"[1]": {"test_system": "WA-C3CD5+ cells (CLL)", "assay": "Cell viability assay (CellTiter-Glo), WA-C3CD5+", "type": "cell-based", "settings": "72 h, n = 3"}, "[2]": {"test_system": "Mo1043 cells (CLL)", "assay": "Cell viability assay (CellTiter-Glo), Mo1043", "type": "cell-based", "settings": "72 h, n = 3"}, "[3]": {"test_system": "HL-60 cells (APML)", "assay": "Cell viability assay (CellTiter-Glo), HL-60", "type": "cell-based", "settings": "Homo sapiens, 72 h, n = 3", "procedure": "All cell lines were purchased from ATCC, except for DoHH-2 cells that were obtained from DSMZ. Cells were cultivated in complete DMEM supplemented with 10% (vol/vol) FBS (Gibco) and 1% of penicillin/streptomycin (Gibco). The cells were grown in a humidified atmosphere of 5% CO2 at 37°C, with the medium changed every other day.\nCells were inoculated at a density of 5000 cells/well. Serially diluted compounds (starting at 50 μM) were added 24 h later. The assay was performed in triplicates. After 72 h of incubation, cellular viability was assessed by CellTiter-Glo (Promega) according to the manufacturer’s instructions. The values were normalized with the vehicle (DMSO), and the IC50 was calculated using GraphPad Prism 8."}, "[4]": {"biological_target": "T1, JAK3 (Homo sapiens, UniProt P52333)", "T1 construct": "host or cells: HEK296T (so in the source)", "T1 sequence (P52333 whole entry)": "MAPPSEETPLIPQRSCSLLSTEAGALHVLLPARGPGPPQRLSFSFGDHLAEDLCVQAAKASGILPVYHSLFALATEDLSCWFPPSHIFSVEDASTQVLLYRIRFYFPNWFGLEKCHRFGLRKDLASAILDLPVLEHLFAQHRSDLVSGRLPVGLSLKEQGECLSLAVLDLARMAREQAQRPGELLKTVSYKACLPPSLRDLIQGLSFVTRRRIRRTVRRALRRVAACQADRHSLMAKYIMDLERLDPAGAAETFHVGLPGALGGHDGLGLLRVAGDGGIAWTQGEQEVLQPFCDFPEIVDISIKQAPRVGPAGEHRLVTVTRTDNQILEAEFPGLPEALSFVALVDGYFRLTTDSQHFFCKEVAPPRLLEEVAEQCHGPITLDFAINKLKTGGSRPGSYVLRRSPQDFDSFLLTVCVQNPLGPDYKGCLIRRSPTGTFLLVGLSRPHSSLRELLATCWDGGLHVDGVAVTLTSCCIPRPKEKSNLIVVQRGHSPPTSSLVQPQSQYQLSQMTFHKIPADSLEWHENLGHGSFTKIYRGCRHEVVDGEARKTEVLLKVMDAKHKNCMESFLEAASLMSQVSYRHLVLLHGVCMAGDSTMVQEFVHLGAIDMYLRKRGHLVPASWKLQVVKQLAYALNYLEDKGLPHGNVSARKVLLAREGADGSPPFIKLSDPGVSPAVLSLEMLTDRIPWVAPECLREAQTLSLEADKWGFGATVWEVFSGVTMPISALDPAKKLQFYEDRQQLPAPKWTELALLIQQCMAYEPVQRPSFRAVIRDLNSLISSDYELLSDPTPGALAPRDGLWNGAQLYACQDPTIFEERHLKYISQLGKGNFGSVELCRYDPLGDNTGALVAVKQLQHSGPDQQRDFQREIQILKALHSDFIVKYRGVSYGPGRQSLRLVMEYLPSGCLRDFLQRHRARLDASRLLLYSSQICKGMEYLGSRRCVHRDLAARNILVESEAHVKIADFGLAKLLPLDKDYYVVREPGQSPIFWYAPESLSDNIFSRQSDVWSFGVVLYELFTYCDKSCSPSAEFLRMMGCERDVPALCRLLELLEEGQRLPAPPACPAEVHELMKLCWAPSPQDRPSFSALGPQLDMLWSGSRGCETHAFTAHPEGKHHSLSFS", "assay": "NanoBRET in-cell target engagement, JAK3", "type": "binding", "settings": "HEK296T cells, 1 h incubation, average of duplicates", "procedure": "(§1) In-cell target engagement was performed at Reaction Biology Corporation, using NanoBRET technology. Very briefly, HEK296T cells were transfected and treated in duplicate with JS25 for 1 h of incubation. The compound was diluted 10 times with 3-fold dilution, starting at 1 μM. Curve fits were performed only when the % NanoBret signal at the highest concentration of compounds was less than 55%. The IC50 values were determined using GraphPad Prism 8 ([…])."}, "[5]": {"biological_target": "T2, BMX (Homo sapiens, UniProt P51813)", "T2 construct": "host or cells: HEK296T (so in the source)", "T2 sequence (P51813 1-675)": "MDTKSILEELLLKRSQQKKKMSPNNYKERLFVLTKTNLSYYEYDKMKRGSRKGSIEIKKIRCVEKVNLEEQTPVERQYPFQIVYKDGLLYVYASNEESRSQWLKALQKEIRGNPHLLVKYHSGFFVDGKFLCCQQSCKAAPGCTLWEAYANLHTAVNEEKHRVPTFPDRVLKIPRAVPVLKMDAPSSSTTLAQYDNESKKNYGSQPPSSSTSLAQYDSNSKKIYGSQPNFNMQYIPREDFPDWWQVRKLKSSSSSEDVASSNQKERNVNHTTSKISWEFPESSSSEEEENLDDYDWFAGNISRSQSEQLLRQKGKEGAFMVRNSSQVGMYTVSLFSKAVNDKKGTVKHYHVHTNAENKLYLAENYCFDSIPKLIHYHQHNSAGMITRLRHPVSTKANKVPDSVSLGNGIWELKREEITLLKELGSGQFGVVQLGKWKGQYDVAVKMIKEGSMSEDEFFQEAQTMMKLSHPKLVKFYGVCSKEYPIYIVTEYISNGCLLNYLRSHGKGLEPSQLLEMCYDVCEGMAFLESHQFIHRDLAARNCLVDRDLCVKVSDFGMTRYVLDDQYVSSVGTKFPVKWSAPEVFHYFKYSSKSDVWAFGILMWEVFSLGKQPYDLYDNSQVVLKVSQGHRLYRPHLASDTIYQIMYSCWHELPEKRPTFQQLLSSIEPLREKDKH", "settings": "first value of 3.5/49 in Table S3; ref SI 20; read-out: IC50, BMX, earlier value of JS25; cited from earlier work"}, "[6]": {"assay": "Body weight in the mice xenograft model", "type": "in vivo", "settings": "up to 20 mg/kg i.p. every 2 days", "procedure": "Female adult BALB/c/NSG mice were injected subcutaneously with 1 × 10^6 Raji cells, in a 1:1 solution of Matrigel Matrix (Corning) to create solid tumors. When tumors reached 180 mm^3 on average, mice were randomized into four groups (n = 6/group), and dosing began every 2 days. […] Tumor size and body weight were monitored periodically for 12 days. At the end of the experiment, mice necropsies were performed. Stereological analysis was conducted by the Histopathology Unit at Instituto Gulbenkian de Ciência and by the Comparative Pathology Unit at Instituto de Medicina Molecular João Lobo Antunes. Quantification of metastases and cell necrosis was performed in all groups (n = 5/group). Statistical analysis was conducted using one-way ANOVA. The Dunnet test was used to analyze the statistical significance between the treatment groups and the control."}, "[7]": {"biological_target": "T3, TXK (Homo sapiens, UniProt P42681)", "T3 construct": "host or cells: HEK296T (so in the source)", "T3 sequence (P42681 1-527)": "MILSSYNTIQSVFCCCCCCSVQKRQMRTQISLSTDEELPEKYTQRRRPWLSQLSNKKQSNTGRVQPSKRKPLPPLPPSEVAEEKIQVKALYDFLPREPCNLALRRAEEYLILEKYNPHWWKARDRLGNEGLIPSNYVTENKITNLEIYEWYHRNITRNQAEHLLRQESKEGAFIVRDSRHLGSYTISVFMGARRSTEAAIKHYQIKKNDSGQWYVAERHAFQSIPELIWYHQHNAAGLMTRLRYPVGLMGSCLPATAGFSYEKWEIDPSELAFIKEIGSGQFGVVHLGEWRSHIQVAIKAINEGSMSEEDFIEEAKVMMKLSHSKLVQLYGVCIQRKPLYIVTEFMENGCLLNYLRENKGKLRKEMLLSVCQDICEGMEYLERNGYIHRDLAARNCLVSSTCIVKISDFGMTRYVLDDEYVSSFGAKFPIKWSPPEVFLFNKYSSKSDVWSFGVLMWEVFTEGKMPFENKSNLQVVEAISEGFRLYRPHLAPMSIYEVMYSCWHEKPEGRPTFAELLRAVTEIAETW", "assay": "NanoBRET in-cell target engagement, TXK", "type": "binding", "procedure": "as §1"}, "[8]": {"biological_target": "BTK (Homo sapiens, UniProt Q06187)", "sequence (Q06187 whole entry)": "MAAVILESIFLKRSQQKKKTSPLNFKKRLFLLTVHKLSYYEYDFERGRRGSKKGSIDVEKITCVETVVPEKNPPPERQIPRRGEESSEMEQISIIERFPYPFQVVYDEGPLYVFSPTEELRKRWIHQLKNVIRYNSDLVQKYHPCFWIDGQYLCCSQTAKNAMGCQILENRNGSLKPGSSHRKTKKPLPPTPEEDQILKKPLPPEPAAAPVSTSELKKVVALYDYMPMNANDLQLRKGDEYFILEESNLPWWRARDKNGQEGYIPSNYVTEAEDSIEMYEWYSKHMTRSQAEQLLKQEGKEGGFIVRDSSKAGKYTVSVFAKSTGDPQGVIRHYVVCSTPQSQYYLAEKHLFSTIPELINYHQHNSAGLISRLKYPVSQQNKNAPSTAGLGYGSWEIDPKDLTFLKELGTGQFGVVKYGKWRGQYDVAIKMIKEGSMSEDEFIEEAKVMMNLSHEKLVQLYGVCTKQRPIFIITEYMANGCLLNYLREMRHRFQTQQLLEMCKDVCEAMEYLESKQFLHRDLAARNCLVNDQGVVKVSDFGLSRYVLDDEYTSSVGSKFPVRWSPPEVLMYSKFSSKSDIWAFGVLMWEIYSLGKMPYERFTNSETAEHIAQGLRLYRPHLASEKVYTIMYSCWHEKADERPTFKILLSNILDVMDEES", "design": "purchased Promega Corporation V2941", "settings": "first value of 5.8/28 in Table S3; ref 23 (SI ref 20); read-out: IC50 (potency against BTK), earlier value of JS25; cited from earlier work"}, "[9]": {"biological_target": "T4, ERBB2 (Homo sapiens, UniProt P04626)", "T4 construct": "host or cells: HEK296T (so in the source)", "T4 sequence (P04626 23-1255)": "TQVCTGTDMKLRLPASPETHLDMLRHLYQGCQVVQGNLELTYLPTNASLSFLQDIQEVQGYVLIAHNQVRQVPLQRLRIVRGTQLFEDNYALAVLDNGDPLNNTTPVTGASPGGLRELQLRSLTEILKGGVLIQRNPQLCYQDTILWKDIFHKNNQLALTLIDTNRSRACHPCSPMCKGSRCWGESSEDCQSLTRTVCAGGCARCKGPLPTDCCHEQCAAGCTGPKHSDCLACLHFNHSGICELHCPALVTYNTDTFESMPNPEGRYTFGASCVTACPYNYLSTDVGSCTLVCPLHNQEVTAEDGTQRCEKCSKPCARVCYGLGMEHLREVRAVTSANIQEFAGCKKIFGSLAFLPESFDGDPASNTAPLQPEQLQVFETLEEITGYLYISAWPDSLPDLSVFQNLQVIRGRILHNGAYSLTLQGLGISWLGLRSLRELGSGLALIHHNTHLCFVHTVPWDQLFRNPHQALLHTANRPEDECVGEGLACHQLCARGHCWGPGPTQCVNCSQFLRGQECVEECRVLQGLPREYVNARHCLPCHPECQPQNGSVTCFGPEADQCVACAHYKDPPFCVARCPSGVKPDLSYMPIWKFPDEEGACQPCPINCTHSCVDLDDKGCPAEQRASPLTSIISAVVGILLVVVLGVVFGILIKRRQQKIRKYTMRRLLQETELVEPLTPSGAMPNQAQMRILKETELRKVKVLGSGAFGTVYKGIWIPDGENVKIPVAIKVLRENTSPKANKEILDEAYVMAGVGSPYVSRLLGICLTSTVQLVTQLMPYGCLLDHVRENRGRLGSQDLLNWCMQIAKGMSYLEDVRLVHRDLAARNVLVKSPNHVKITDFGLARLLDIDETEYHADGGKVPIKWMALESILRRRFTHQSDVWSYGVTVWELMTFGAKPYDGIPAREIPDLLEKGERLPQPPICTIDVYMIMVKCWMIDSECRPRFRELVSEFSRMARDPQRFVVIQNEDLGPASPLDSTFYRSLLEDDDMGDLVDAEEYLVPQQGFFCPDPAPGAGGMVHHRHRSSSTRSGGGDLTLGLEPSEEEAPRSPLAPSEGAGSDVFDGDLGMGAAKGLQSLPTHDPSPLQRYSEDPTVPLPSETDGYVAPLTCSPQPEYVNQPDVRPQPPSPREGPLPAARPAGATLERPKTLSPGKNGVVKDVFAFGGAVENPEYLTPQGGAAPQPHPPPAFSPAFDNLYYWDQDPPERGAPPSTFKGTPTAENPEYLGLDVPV", "assay": "NanoBRET in-cell target engagement, ERBB2", "type": "binding", "settings": "HEK296T cells, 1 h incubation, average of duplicates", "procedure": "as §1"}, "[10]": {"test_system": "HBEC-5i cell model", "assay": "In vitro blood–brain barrier permeability (translocation), HBEC-5i cell model", "type": "in vitro ADME, human", "settings": "Translocation 24 h, compound 15 μM", "procedure": "Human cerebral microvascular endothelial cells (HBEC-5i) were cultured as a monolayer on attachment factor protein solution (AF)-coated T-flasks (Gibco), using DMEM/F12 medium (Gibco), supplemented with 10% FBS, 1% penicillin/streptomycin, and 40.0 μg/mL endothelial cell growth supplement (ECGS, Sigma), according to the manufacturer’s instructions. The capacity of the compounds to cross the brain–blood barrier (BBB) was evaluated using an in vitro HBEC-5i cell model, as previously described.[29] Samples from the apical and basolateral sides were collected, and fluorescence intensity was measured using a Varioskan LUX multimode microplate reader. The retention was considered the difference between the initial fluorescence of compounds (100%) and the aggregated apical and basolateral fluorescence."}}}
{"compound": "C=CC(=O)Nc1cc(C)cc(-n2c(=O)ccc3cnc4ccc(-c5ccc(NS(C)(=O)=O)cc5)cc4c32)c1", "note": "[JS25]", "values": [{"measurement": "IC50", "setting": "[1]", "result": 3500, "unit": "nM"}, {"measurement": "IC50", "setting": "[2]", "result": "3400 ± 10", "unit": "nM"}, {"measurement": "IC50", "setting": "[3]", "result": 1950, "unit": "nM"}, {"measurement": "IC50", "setting": "[4]", "result": "> 3000", "unit": "nM"}, {"measurement": "IC50", "setting": "[5]", "result": 3.5, "unit": "nM"}, {"measurement": "body weight fluctuation by the end of the treatment", "setting": "[6]", "result": "no weight fluctuations were observed"}, {"measurement": "selectivity for BTK relative to TXK", "setting": "[7]", "result": "~7", "unit": "fold"}, {"measurement": "IC50", "setting": "[7]; HEK296T cells, 1 h incubation, average of duplicates", "result": 190, "unit": "nM"}, {"measurement": "selectivity (kinase/BTK), TXK", "setting": "[7]; IC50 kinase/IC50 BTK", "result": 6.7}, {"measurement": "IC50", "setting": "[8]", "result": 5.8, "unit": "nM"}, {"measurement": "IC50", "setting": "[9]", "result": "> 3000", "unit": "nM"}, {"measurement": "% Fluorescence, Basolateral side (permeability to the BBB)", "setting": "[10]", "result": 28.5, "unit": "%"}]}
